Test results reported in patent publication US12030893B2, “Near-infrared nerve-sparing benzo[c]phenoxazine fluorophores” (OREGON HEALTH & SCIENCE UNIVERSITY, priority 2018, dated 2024).

Experiments:
[1] = test system: murine brachial plexus and sciatic nerves; experiment: In vivo nerve-specificity screening via direct/topical administration; parameters: species or system mice; conditions: 500 μM in co-solvent formulation, 100 μL incubated 5 minutes on exposed nerve, imaged 30 minutes after staining; selected for further systemic screening
Protocol: Each compound was screened for its tissue-specificity using a previously published direct/topical administration strategy in murine brachial plexus and sciatic nerves.^1 Each compound from the benzo[c]phenoxazine library was formulated in the previously utilized co-solvent formulation (10% DMSO, 5% Kolliphor, 65% serum and 20% phosphate buffered saline) at 500 μM. 100 μL of the formulated Oxazine were incubated on the exposed brachial plexus or sciatic nerve for 5 minutes. The fluorophore containing solution was removed and the area was irrigated with saline 18 times to remove any unbound fluorophore. Co-registered fluorescence and color images were collected of each stained area 30 minutes after benzo[c]phenoxazine direct/topical administration using a custom built macroscopic imaging system with 710/75 nm excitation and 810 nm longpass emission filters. Custom written MatLab code was used to analyze the tissue specific fluorescence where regions of interest were selected on the nerve, muscle, cut muscle and adipose tissue using the white light images. These regions of interest were then analyzed on the co-registered matched fluorescence images permitting assessment of the nerve-to-muscle, nerve-to-cut muscle, and nerve-to-adipose ratios in blinded manner.
(§1) In vivo nerve-specificity screening of the benzo[c]phenoxazine derivative library. Each compound was screened for its tissue-specificity using a direct administration strategy (Barth & Gibbs, Theranostics 7, 573-593 (2017)) where nerve contrast was examined in murine brachial plexus and sciatic nerves. The benzo[c]phenoxazine derivatives were solubilized for in vivo use in the previously described co-solvent formulation (Gibbs-Strauss et al., Molecular imaging 10, 91-101 (2011)). The previously optimized staining procedure was utilized (Gibbs et al., PloS one 8, e73493 (2013)), which is described briefly as follows. The brachial plexus and sciatic nerves were surgically exposed by removal of overlaying adipose and muscle tissues. The benzo[c]phenoxazine compound was formulated at 500 μM in the co-solvent formulation and 100 μL was incubated on the exposed brachial plexus or sciatic nerve for 5 minutes. The fluorophore containing solution was removed and the area was irrigated with saline nine times, followed by a five-minute incubation with blank formulation and then irrigation with saline nine more times to remove any unbound fluorophore. Images were acquired 30 minutes following completion of staining. Unstained nerve sites were used for all control images to quantify autofluorescence. Each benzo[c]phenoxazine derivative was screened in n=3 mice or 6 nerve sites/fluorophore. The quantified tissue fluorescence intensities following direct administration of the fluorophores were used to calculate nerve-to-muscle, nerve-to-cut muscle, and nerve-to-adipose ratios as metrics of nerve contrast. […] Uninjected animals were used for all control images to quantify autofluorescence. Similarly to quantification protocol for the direct administration, the quantified tissue fluorescence intensities following systemic administration of the fluorophores were used to calculate nerve-to-muscle and nerve-to-adipose ratios as metrics of nerve contrast. […]
Intraoperative fluorescence imaging systems. A custom-built small animal imaging system capable of real-time color and fluorescence imaging was used to acquire in vivo rodent images (Hackman et al., Molecular pharmaceutics (2015)). […]

[2] = test system: murine brachial plexus and sciatic nerves; experiment: In vivo nerve-specificity screening via systemic administration; parameters: species or system mice; conditions: 500 nmol intravenously in co-solvent formulation; sacrificed at 0.5 h, 1 h, 2 h, 4 h
Protocol: Each compound was screened for its tissue-specificity using a previously published systemic administration strategy in murine brachial plexus and sciatic nerves.^1 Each compound from the benzo[c]phenoxazine library was formulated in the previously utilized co-solvent formulation (10% DMSO, 5% Kolliphor, 65% serum and 20% phosphate buffered saline) at 2.5 mM. 200 μL of the formulated fluorophore was administered intravenously before exposing the brachial plexus and sciatic nerves. Co-registered fluorescence and color images were collected of each nerve site using a custom built macroscopic imaging system with 710/75 nm excitation and 810 nm longpass emission filters. Custom written MatLab code was used to analyze the tissue specific fluorescence where regions of interest were selected on the nerve, muscle and adipose tissue using the white light images. These regions of interest were then analyzed on the co-registered matched fluorescence images permitting assessment of the nerve to muscle and nerve to adipose ratios in blinded manner.
as §1, with “The brachial plexus and sciatic nerves were surgically exposed by removal of overlaying adipose and muscle tissues. The benzo[c]phenoxazine compound was formulated at 500 μM in the co-solvent formulation and 100 μL was incubated on the exposed brachial plexus or sciatic nerve for 5 minutes. The fluorophore containing solution was removed and the area was irrigated with saline nine times, followed by a five-minute incubation with blank formulation and then irrigation with saline nine more times to remove any unbound fluorophore. Images were acquired 30 minutes following completion of staining.” left out, “Each benzo[c]phenoxazine derivative was screened in n=3 mice or 6 nerve sites/fluorophore.” left out
Intraoperative fluorescence imaging systems. A custom-built small animal imaging system capable of real-time color and fluorescence imaging was used to acquire in vivo rodent images (Hackman et al., Molecular pharmaceutics (2015)). Briefly, the imaging system consisted of a QImaging EXi Blue monochrome camera (Surrey, British Columbia, CA) for fluorescence detection with a removable Bayer filter for collection of co-registered color and fluorescence images. […]

[3] = longest among reported nerve-specific fluorophores; cited from earlier work

SMILES: CCN(CC)c1ccc2c3c(ccc2c1)N=c1cc2c(cc1O3)=NCCC2 [LGW07-14, 3-(diethylamino)-10,11-dihydro-9H-benzo[h]pyrido[3,2-b]phenoxazin-12-ium]
- outcome of nerve-specificity screening (nerve-to-muscle, nerve-to-cut muscle, nerve-to-adipose ratios) following direct administration [1]: lead candidates
- outcome of nerve-specificity screening (nerve-to-muscle, nerve-to-adipose ratios) following systemic administration [2]: selected as lead benzo[c]phenoxazine nerve-specific fluorophores

SMILES: CCN(CC)c1ccc2c(ccc3nc4ccc(=[N+](C)C)cc-4oc32)c1 [LGW07-92, N-(3-(diethylamino)-10H-benzo[c]phenoxazin-10-ylidene)-N-methylmethanaminium]
- outcome of nerve-specificity screening (nerve-to-muscle, nerve-to-cut muscle, nerve-to-adipose ratios) following direct administration [1]: lead candidates

SMILES: CC/N=c1\ccc2nc3ccc4cc(N(CC)CC)ccc4c3oc-2c1C [LGW08-35, (E)-N-(3-(diethylamino)-11-methyl-10H-benzo[c]phenoxazin-10-ylidene)ethanaminium]
- outcome of nerve-specificity screening (nerve-to-muscle, nerve-to-cut muscle, nerve-to-adipose ratios) following direct administration [1]: lead candidates
- outcome of nerve-specificity screening (nerve-to-muscle, nerve-to-adipose ratios) following systemic administration [2]: selected as lead benzo[c]phenoxazine nerve-specific fluorophores

SMILES: CC/N=c1/cc2oc3c(ccc4cc(N(CC)CC)ccc43)nc-2c(C)c1 [LGW08-46, (E)-N-(3-(diethylamino)-8-methyl-10H-benzo[c]phenoxazin-10-ylidene)ethanaminium]
- outcome of nerve-specificity screening (nerve-to-muscle, nerve-to-cut muscle, nerve-to-adipose ratios) following direct administration [1]: lead candidates
- outcome of nerve-specificity screening (nerve-to-muscle, nerve-to-adipose ratios) following systemic administration [2]: selected as lead benzo[c]phenoxazine nerve-specific fluorophores

SMILES: CC/N=c1/cc2oc3c(ccc4cc(N(CC)CC)ccc43)nc-2cc1C [LGW 05-25, (Z)—N-(3-(diethylamino)-9-methyl-10H-benzo[c]phenoxazin-10-ylidene)ethanaminium]
- outcome of nerve-specificity screening (nerve-to-muscle, nerve-to-cut muscle, nerve-to-adipose ratios) following direct administration [1]: lead candidates
- outcome of nerve-specificity screening (nerve-to-muscle, nerve-to-adipose ratios) following systemic administration [2]: selected as lead benzo[c]phenoxazine nerve-specific fluorophores

SMILES: CC/N=c1/cc2oc3cc(NCC)c(C)cc3nc-2cc1C [Oxazine 4]
- emission wavelength maximum [3]: 635 nm
